Test results from ChEMBL document CHEMBL1137892, “Pyrimidine methyl anilines: selective potentiators for the metabotropic glutamate 2 receptor” (Bioorg Med Chem Lett, 2004).

What was measured:
Format in all cases: functional
[1] = biological target: Metabotropic glutamate receptor 2 (Homo sapiens) (UniProt Q14416); assay: Level of potentiation of Metabotropic glutamate receptor 2 was determined by measuring the percentage activation of [35S]GTP-gamma-S, in the presence of 10 uM glutamate
[2] = biological target: Metabotropic glutamate receptor 2 (Homo sapiens) (UniProt Q14416); assay: Binding potency against Metabotropic glutamate receptor 2 was determined by measuring the concentration required to activate 50% of [35S]GTP-gamma-S, in presence of 10 uM glutamate
[3] = biological target: Metabotropic glutamate receptor 3 (Homo sapiens) (UniProt Q14832); assay: Binding potency against Metabotropic glutamate receptor 3 was determined by measuring the concentration required to activate 50% of [35S]GTP-gamma-S, in presence of glutamate; inactive
Chain of Metabotropic glutamate receptor 3 (Homo sapiens) (Q14832 23-879 limits assumed): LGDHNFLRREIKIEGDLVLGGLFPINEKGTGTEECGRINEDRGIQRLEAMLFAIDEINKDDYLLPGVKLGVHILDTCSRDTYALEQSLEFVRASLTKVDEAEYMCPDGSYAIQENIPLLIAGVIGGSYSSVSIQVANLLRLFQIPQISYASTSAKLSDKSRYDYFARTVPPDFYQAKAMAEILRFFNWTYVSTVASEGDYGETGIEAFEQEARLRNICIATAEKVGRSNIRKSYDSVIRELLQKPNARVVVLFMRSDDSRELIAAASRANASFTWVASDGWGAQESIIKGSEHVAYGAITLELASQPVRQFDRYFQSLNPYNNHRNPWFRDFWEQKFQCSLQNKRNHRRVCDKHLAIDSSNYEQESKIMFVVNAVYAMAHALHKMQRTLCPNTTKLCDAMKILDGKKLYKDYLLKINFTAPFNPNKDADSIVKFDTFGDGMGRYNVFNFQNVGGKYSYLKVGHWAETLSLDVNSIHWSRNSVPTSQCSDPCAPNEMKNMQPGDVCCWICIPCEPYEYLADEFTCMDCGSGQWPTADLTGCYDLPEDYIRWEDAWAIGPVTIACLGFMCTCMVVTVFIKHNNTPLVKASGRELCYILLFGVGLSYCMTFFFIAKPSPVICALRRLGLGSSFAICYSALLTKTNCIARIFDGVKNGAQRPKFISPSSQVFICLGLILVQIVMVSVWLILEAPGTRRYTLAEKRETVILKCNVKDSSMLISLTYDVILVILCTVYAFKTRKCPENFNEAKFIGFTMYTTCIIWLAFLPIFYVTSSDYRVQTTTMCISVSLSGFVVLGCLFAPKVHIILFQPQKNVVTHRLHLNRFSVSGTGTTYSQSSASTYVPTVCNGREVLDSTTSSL

Chain of Metabotropic glutamate receptor 2 (Homo sapiens) (Q14416 19-872 limits assumed): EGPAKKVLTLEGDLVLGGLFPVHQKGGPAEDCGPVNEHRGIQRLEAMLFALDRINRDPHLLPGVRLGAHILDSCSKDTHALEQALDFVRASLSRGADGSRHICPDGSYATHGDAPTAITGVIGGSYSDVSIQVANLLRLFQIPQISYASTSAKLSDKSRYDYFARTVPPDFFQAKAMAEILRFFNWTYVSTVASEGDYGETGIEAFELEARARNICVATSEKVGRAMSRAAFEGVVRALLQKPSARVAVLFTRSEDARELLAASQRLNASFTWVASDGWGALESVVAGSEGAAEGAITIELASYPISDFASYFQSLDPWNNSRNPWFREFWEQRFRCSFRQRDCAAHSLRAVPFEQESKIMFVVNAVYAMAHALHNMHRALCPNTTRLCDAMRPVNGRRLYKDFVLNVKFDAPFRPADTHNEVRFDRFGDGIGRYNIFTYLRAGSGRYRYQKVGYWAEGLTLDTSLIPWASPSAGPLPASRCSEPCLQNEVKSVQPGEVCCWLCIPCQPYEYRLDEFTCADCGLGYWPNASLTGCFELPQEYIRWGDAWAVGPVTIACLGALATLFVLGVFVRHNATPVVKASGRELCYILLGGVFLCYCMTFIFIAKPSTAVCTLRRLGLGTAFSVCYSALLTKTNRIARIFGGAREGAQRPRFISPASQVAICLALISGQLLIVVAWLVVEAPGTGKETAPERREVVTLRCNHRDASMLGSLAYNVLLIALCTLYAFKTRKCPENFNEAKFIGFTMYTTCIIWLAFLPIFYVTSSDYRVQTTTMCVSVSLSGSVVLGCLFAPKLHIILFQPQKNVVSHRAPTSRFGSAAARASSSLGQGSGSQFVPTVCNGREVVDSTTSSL

Compound	Potentiation [1]	ED50 [2]	Concentration [3]
O=S(=O)(CC(F)(F)F)N(Cc1cncnc1)c1cccc(Cc2ccccc2)c1	43%	0.54 µM	
O=S(=O)(CC(F)(F)F)N(Cc1cncnc1)c1cccc(Oc2ccccc2Br)c1	40%	1.1 µM	
COc1ccccc1Oc1ccc(N(Cc2cccnc2)S(=O)(=O)CC(F)(F)F)cc1	52%	1.7 µM	
O=S(=O)(CC(F)(F)F)N(Cc1cncnc1)c1ccc(Oc2ccccc2)cc1	37%	0.56 µM	
O=S(=O)(CC(F)(F)F)N(Cc1cncnc1)c1cccc(OC2CCCC2)c1	60%	0.84 µM	
Cc1ccccc1Oc1cccc(N(Cc2cncnc2)S(=O)(=O)CC(F)(F)F)c1	53%	0.63 µM	
CCCC(C)Oc1cccc(NCc2cnc3ccccc3c2)c1 (stereo unspecified)	41%	4.3 µM	
CC(C)(C)[Si](C)(C)OCc1cccc(N(Cc2cncnc2)S(=O)(=O)CC(F)(F)F)c1	48%	0.66 µM	
O=S(=O)(CC(F)(F)F)N(Cc1cncnc1)c1cccc(Oc2ccccc2)c1	52%	0.66 µM	
c1ccc(Cc2cccc(NCc3cncnc3)c2)cc1	31%	0.71 µM	
FC(F)(F)Oc1cccc(NCc2cnc3ccccc3c2)c1	40%	5.2 µM	
O=S(=O)(CC(F)(F)F)N(Cc1cncnc1)c1cccc(Oc2ccccc2C(F)(F)F)c1	73%	0.97 µM	
COc1ccccc1Oc1cccc(N(Cc2cncnc2)S(=O)(=O)CC(F)(F)F)c1	62%	0.76 µM	
O=S(=O)(CC(F)(F)F)N(Cc1cncnc1)c1cccc(COc2ccccc2)c1	51%	1.2 µM	
c1ccc(NCc2cncnc2)cc1	68%	9.6 µM	
FC(F)(F)Oc1cccc(NCc2cncnc2)c1	26%	19 µM	
O=S(=O)(CC(F)(F)F)N(Cc1cncnc1)c1cccc(Oc2ccccc2F)c1	46%	0.86 µM	
CCCC(C)Oc1cccc(N(Cc2cncnc2)S(=O)(=O)CC(F)(F)F)c1 (stereo unspecified)	31%	0.35 µM	10 µM
O=C(OCc1cccc(N(Cc2cncnc2)S(=O)(=O)CC(F)(F)F)c1)c1ccccc1	39%	0.81 µM	
FC(F)(F)c1ccccc1Cc1cccc(NCc2cnc3ccccc3c2)c1	18%	1 µM	
